Assays:
opioid receptors = conditions: Wikler, A., Int. J. of the Addictions 12(7) 869, 1977; cited from earlier work
chronic constipation [1] = experiment: Example I: stool weight of a patient with chronic constipation given naloxone (single blind, placebo first); assay type: in vivo, human
Procedure: A person with a history of chronic constipation for a period of over twenty years, requiring daily use of large doses of laxatives plus frequent enemas, was admitted to the research hospital on day one at approximately 4:00 p.m. They were given a standard laxative regimen documented to be inadequate to effect a spontaneous bowel movement, and placed on a high residue diet.
During the first 24 hours they were treated with a placebo (Infusion A) according to the following schedule:
The total dosage per day was 21.6 mg.
During the five days that the patient was under hospital care the stools were collected and weighed. The results were as follows:
The experiment was conducted as a single blind. The patient was not aware of whether they were receiving a placebo or the active agent.

chronic constipation [2] = experiment: Example II: stool weight of a second patient with chronic constipation given naloxone; assay type: in vivo, human
From the text: A second patient with a history of over twenty years of chronic constipation, intractable to laxatives, who for the past several months was only relieved by enema treatment was admitted to the hospital and placed on a high residue diet.

chronic constipation [3] = experiment: Table 1: five inpatient and outpatient studies on Patient Number 1 (chronic constipation): fecal weight, fecal fat, symptoms; assay type: in vivo, human
From the text: The tables set forth the significant details and results of a number of studies conducted with different patients suffering from various forms of intestinal dysmotility. […] The first study was of two days duration. The lengths of subsequent studies are as indicated.
The reports Tables 1 to 5 are for patients with chronic constipation. Those in Tables 6, 7 and 8 are for patients with irritable bowel syndrome.

[4] = Adverse effects by clinical examination, blood and urine analysis in Examples I and II; assay type: in vivo, human
From the text: Samples of the patient's blood and urine were collected each day and subjected to analysis.

[5] = Day 2, naloxone intravenous (29.2 mg per Table 1)
[6] = Day 3, naloxone oral 21.6 mg per day
[7] = Day 4, naloxone oral 21.6 mg per day
[8] = Day 5, naloxone oral 21.6 mg per day
[9] = Day 1, 29.2 mg naloxone, intravenous
[10] = Patient Number 1, Study #1 (inpatient), i.v., Study Day 2, total 24 hour dose 29.2 mg
[11] = Patient Number 1, Study #2 (inpatient), p.o., Study Day 1, total 24 hour dose 21.6 mg
[12] = Patient Number 1, Study #2 (inpatient), p.o., Study Day 2, total 24 hour dose 21.6 mg
[13] = Patient Number 1, Study #2 (inpatient), p.o., Study Day 3, total 24 hour dose 21.6 mg

Compound: O=C1CC[C@@]2(O)[C@H]3Cc4ccc(O)c5c4[C@@]2(CCN3CC2CC2)[C@H]1O5 [Naltrexone, N-cyclopropylmethyl-14-hydroxydihydronormorphinone]
- agonistic activity (opioid receptors): slight agonistic activity

Compound: C=CCN1CC[C@]23c4c5ccc(O)c4O[C@H]2C(=O)CC[C@@]3(O)[C@H]1C5 [naloxone, N-allyl-14-hydroxydihydronormorphinone]
- STOOL WEIGHT GRAMS Wet Weight (chronic constipation [1]; [5]): 649 Grams
- Stool Weight Grams Dry Weight (chronic constipation [1]; [5]): 52 Grams
- STOOL WEIGHT GRAMS Wet Weight (chronic constipation [1]; [6]): 985 Grams
- Stool Weight Grams Dry Weight (chronic constipation [1]; [6]): 77 Grams
- STOOL WEIGHT GRAMS Wet Weight (chronic constipation [1]; [7]): 997 Grams
- Stool Weight Grams Dry Weight (chronic constipation [1]; [7]): 77 Grams
- STOOL WEIGHT GRAMS Wet Weight (chronic constipation [1]; [8]): 806 Grams
- Stool Weight Grams Dry Weight (chronic constipation [1]; [8]): 65 Grams
- STOOL WEIGHT GRAMS Wet Weight (chronic constipation [2]; [9]): 84 GRAMS
- Stool Weight Grams Dry Weight (chronic constipation [2]; [9]): 18.5 GRAMS
- STOOL WEIGHT GRAMS Wet Weight (chronic constipation [2]; Day 3, 14.4 mg naloxone, oral): 35 GRAMS
- Stool Weight Grams Dry Weight (chronic constipation [2]; Day 3, 14.4 mg naloxone, oral): 8.2 GRAMS
- STOOL WEIGHT GRAMS Wet Weight (chronic constipation [2]; Day 4, 21.6 mg naloxone, oral): 125 GRAMS
- Stool Weight Grams Dry Weight (chronic constipation [2]; Day 4, 21.6 mg naloxone, oral): 66.4 GRAMS
- STOOL WEIGHT GRAMS Wet Weight (chronic constipation [2]; Day 5, 21.6 mg naloxone, oral): 230 GRAMS
- Stool Weight Grams Dry Weight (chronic constipation [2]; Day 5, 21.6 mg naloxone, oral): 82.4 GRAMS
- STOOL WEIGHT GRAMS Wet Weight (chronic constipation [2]; Day 6, 7.2 mg naloxone, oral): 34 GRAMS
- Fecal Dry Wt. (gm) (chronic constipation [3]; [10]): 52 gm
- Fecal Wet Wt. (gm) (chronic constipation [3]; [10]): 649 gm
- Symptoms, Signs, Comments (chronic constipation [3]; [10]): Marked improvement
- Fecal Dry Wt. (gm) (chronic constipation [3]; [11]): 77 gm
- Fecal Wet Wt. (gm) (chronic constipation [3]; [11]): 985 gm
- Symptoms, Signs, Comments (chronic constipation [3]; [11]): Marked improvement
- Fecal Dry Wt. (gm) (chronic constipation [3]; [12]): 77 gm
- Fecal Wet Wt. (gm) (chronic constipation [3]; [12]): 997 gm
- Symptoms, Signs, Comments (chronic constipation [3]; [12]): Marked improvement
- Fecal Dry Wt. (gm) (chronic constipation [3]; [13]): 65 gm
- Fecal Wet Wt. (gm) (chronic constipation [3]; [13]): 806 gm
- Symptoms, Signs, Comments (chronic constipation [3]; [13]): Marked improvement
- Symptoms, Signs, Comments (chronic constipation [3]; Patient Number 1, Study #3 (outpatient), p.o., Study Day 1, total 24 hour dose 21.6 mg): Average day
- Symptoms, Signs, Comments (chronic constipation [3]; Patient Number 1, Study #3 (outpatient), p.o., Study Day 2, total 24 hour dose 21.6 mg): Better than average day
- Symptoms, Signs, Comments (chronic constipation [3]; Patient Number 1, Study #3 (outpatient), p.o., Study Day 3, total 24 hour dose 21.6 mg): Much better than average day
- Fecal Wet Wt. (gm) (chronic constipation [3]; Patient Number 1, Study #4 (inpatient), i.v., Study Day 2, total 24 hour dose 29.2 mg): 775 gm
- Fecal Wet Wt. (gm) (chronic constipation [3]; Patient Number 1, Study #4 (inpatient), i.v., Study Day 3, total 24 hour dose 29.2 mg): 859 gm
- Symptoms, Signs, Comments (chronic constipation [3]; Patient Number 1, Study #5 (outpatient), route not given, Study Day 1, total 24 hour dose 21.6 mg): Much better than average
- Symptoms, Signs, Comments (chronic constipation [3]; Patient Number 1, Study #5 (outpatient), route not given, Study Day 2, total 24 hour dose 21.6 mg): Much better than average
- Symptoms, Signs, Comments (chronic constipation [3]; Patient Number 1, Study #5 (outpatient), route not given, Study Day 3, total 24 hour dose 21.6 mg): Much better than average
- adverse effects (analysis of blood and urine collected each day) ([4]; Example I patient, naloxone intravenous then oral 21.6 mg per day): No adverse effects
- adverse effects (clinical examinations, blood or urine analysis) ([4]; Example II patient, naloxone 29.2 mg intravenous, then 7.2 to 21.6 mg oral): No adverse effects
